Source: patent US20230097753A1, “ALPHA-HYDROXYLATED FATTY-ACID METABOLITES, MEDICAL USES AND USE AS BIOMARKERS” (UNIVERSITAT DE LES ILLES BALEARS, priority 2020, published 2023)

Key:
[1] = Brain fatty acid levels in WT and 5xFAD mice after chronic oral treatment; assay type: in vivo, mouse; conditions: for Brain levels after treatment with DHA-H sodium salt: oral 5-200 mg/kg, 4 months
Procedure: FIG. 2. […] Brain levels of HPA (Al) or DHA (A2) (nmoles/mg of protein) are represented in the ordinate axis, with respect to treatment doses with the sodium salt of DHA-H (A1) and the sodium salt of DHA (A1 and A2) (mg/kg). A1: • animals WT; ∘ 5xFAD. A2: Black bars refer to WT animals and white bars to 5xFAD. The levels of HPA and DHA were determined in the brain of WT and 5xFAD mice after chronic administration of DHA-H sodium salt (4 months; 5 doses/week M-F; between 3 and 7 months of age; sacrifice at 7 months). HPA accumulates in the brain of both mouse strains similarly, depending on the dose of DHA-H sodium salt administered (A1: • r2=0.9292, p=0.0002; ∘ r2=0.9704, p<0.0001). […] Data are shown as mean±standard error, and statistical analysis was done by one-way ANOVA and Tukey multiple evaluation test: *p<0.05 compared to control (mice treated with vehicle). Therefore, when the prodrug DHA-H, in particular its sodium salt, is administered in healthy mice and transgenic models of Alzheimer's disease, a significant accumulation of HPA occurs at the brain level, without the presence of the prodrug (DHA-H) being detected, nor changes in endogenous levels of DHA. […] The number of total errors (B1), reference memory errors (RME) (B2) or working memory errors (WME) (B3), committed, are represented in the ordinate axis against the brain levels of HPA (nmol/mg of protein) in the abscissa axis. The cognitive assessment was done by testing the 8-arm radial labyrinth during the last month of treatment of the same animals shown in FIG. 2A. Individual experimental points from the entire study animal population were plotted and the data from the 5xFAD animals were adjusted to an inverse polynomial regression f(x)=y0+(a/x). The values of r^2 and p corresponding to the regression of each parameter are shown below: total errors, RME and WME versus the brain concentration of HPA: C1: r^2=0.9146 and p=0.0311; C2: r^2=0.9252 and p=0.0243; C3: r^2=0.7785 and p=0.0346. […]

MIA-PaCa 2 = experiment: IC50 in tumor cell cultures (cell survival, XTT / trypan blue); assay type: cell-based; conditions: Homo sapiens; MIA-PaCa 2 pancreatic cancer cell line
Procedure: (§1) Cell survival was analyzed in a Barker chamber using trypan blue vital exclusion staining (Scharlab) or by cell proliferation kit II (Roche). Briefly, the cells were seeded in 96-well plates at a density of 3 x 10^3 cells per well 24 h prior to treatment, and then cultured in the presence or absence of compounds of interest at the concentrations and for the times indicated in the figures. After different times, plaque viable cells were determined by the addition of XTT according to the manufacturers instructions. Cells were incubated at 37° C. in 5% CO2 until a constant color was developed and absorbance was recorded at 495 nm using a microplate reader with a reference wavelength of 650 nm (FLUOstar Omega, BMG LABTECH, Germany).
(§2) The anti-tumor activity of the different metabolites described in FIGS. 8 and 9 was determined by direct treatment with these molecules (HDA or C17:2 ω-6, HTA ω-3 or C17:3 ω-3, HTA ω-6 or C17:3 ω-6, NTA or C19:4 ω-6, NPA or C19:5 ω-3, and HPA or C21:5 ω-3) in tumor cell cultures, on which the IC50 value for each of these compounds was determined (Inhibitory Concentration 50: concentration of study compound that induces death of 50% of the tumor cell population).

A549 = experiment: as above; assay type: cell-based; conditions: A549 human lung adenocarcinoma cell line
Procedure: as §1, §2

Row | Compound | Brain DHA levels after treatment [1] | Brain levels after treatment with DHA-H sodium salt [1] | IC50 (MIA-PaCa 2) | IC50 (A549)
1 | CCC=CCC=CCC=CCC=CCC=CCC=CCC(O)C(=O)O (centres unmarked) [DHA-H, 2-hydroxy-drocosahexaenoic acid] | did not vary significantly | undetectable in the brain | – | –
2 | CC/C=C\C/C=C\C/C=C\C/C=C\C/C=C\CCCCC(=O)O [HPA, (6Z,9Z,12Z,15Z,18Z)-heneicosa-6,9,12,15,18-pentaenoic acid] | – | dose-dependent brain accumulation | 58 ± 17 µM | 228 ± 3 µM
